Patent US20230157952A1, “METHOD FOR IMPROVING THE STABILITY OF A PHARMACEUTICAL COMPOSITION COMPRISING A HIGH PENETRATION DRUG, AND THE PHARMACEUTICAL COMPOSITION OBTAINED THEREFROM” (Techfields Inc., priority 2020, published 2023)

Key:
[1] = Effect of concentration on the stability of the solution (purity over time); conditions: in water at 25° C.
[2] = Effect of temperature (and pH) on the stability of the solution (purity); assay type: physicochemical; conditions: 7% solution in water

## CCN(CC)CCOC(=O)Cc1sc(-c2ccccc2)nc1-c1ccc(Cl)cc1.Cl [2-(diethylamino)ethyl 4-(4-chlorophenyl)-2-phenyl-5-thiazoleacetate•HCl]
[1]; 0.01 wt %
  Purity at Day 3: 83.4%
  Purity at Day 7: 74.2%
  Purity at Day 14: 58.4%
  Purity at Day 21: 46.5%
  Purity at Day 28: 37.5%
  Purity at hr 0: 98.4%
[1]; 0.1 wt %
  Purity at Day 3: 96.7%
  Purity at Day 7: 95.6%
  Purity at Day 14: 91.5%
  Purity at Day 21: 84.7%
  Purity at Day 28: 80.5%
  Purity at hr 0: 98.5%
[1]; 1 wt %
  Purity at Day 3: 96.6%
  Purity at Day 7: 95.5%
  Purity at Day 14: 92.9%
  Purity at Day 21: 90.9%
  Purity at Day 28: 89.1%
  Purity at hr 0: 98.7%
[1]; 3 wt %
  Purity at Day 3: 96.5%
  Purity at Day 7: 96.2%
  Purity at Day 14: 94.8%
  Purity at Day 21: 94.0%
  Purity at Day 28: 92.7%
  Purity at hr 0: 98.9%
[1]; 5 wt %
  Purity at Day 3: 98.4%
  Purity at Day 7: 98.0%
  Purity at Day 14: 97.8%
  Purity at Day 21: 96.6%
  Purity at Day 28: 95.4%
  Purity at hr 0: 98.9%
[1]; 7 wt %
  Purity at Day 3: 98.6%
  Purity at Day 7: 98.2%
  Purity at Day 14: 98.2%
  Purity at Day 21: 97.7%
  Purity at Day 28: 97.5%
  Purity at hr 0: 99.1%
[1]; 8 wt %
  Purity at Day 3: 98.7%
  Purity at Day 7: 98.3%
  Purity at Day 14: 97.9%
  Purity at Day 21: 97.9%
  Purity at Day 28: 97.6%
  Purity at hr 0: 99.1%
[1]; 10 wt %
  Purity at Day 3: 98.8%
  Purity at Day 7: 98.5%
  Purity at Day 14: 98.3%
  Purity at Day 21: 98.1%
  Purity at Day 28: 97.5%
  Purity at hr 0: 99.2%
[1]; 15 wt %
  Purity at Day 3: 98.7%
  Purity at Day 7: 98.6%
  Purity at Day 14: 98.4%
  Purity at Day 21: 98.1%
  Purity at Day 28: 97.8%
  Purity at hr 0: 99.1%
[1]; 20 wt %
  Purity at Day 3: 98.8%
  Purity at Day 7: 98.5%
  Purity at Day 14: 98.2%
  Purity at Day 21: 98.1%
  Purity at Day 28: 97.7%
  Purity at hr 0: 99.0%
[1]; 30 wt %
  Purity at Day 3: 98.7%
  Purity at Day 7: 98.5%
  Purity at Day 14: 98.3%
  Purity at Day 21: 98.0%
  Purity at Day 28: 97.8%
  Purity at hr 0: 99.1%
[1]; 50 wt %
  Purity at Day 3: 98.8%
  Purity at Day 7: 98.5%
  Purity at Day 14: 98.2%
  Purity at Day 21: 98.9%
  Purity at Day 28: 97.8%
  Purity at hr 0: 99.1%
[1]
  Stability when the concentration is 0.1% or lower: not stable
[2]
  Stability of the solution at a temperature higher than 40° C. and a pH lower than 3 or greater than 6: not stable
